How the values were obtained:
E. coli ATCC 25922 = assay: OSID-AST (object scattering intensity detection) with pure E. coli culture; format: cell-based; settings: 32 μg/ml nitrofurantoin or 2 μg/ml ciprofloxacin, 5 representative tests
Description: The integrated object scattering intensity quantification enables detection of bacterial infection and AST for infection positive samples with an algorithm such as that depicted in FIG. 1C. Two test solutions are prepared from a patient's sample. One solution with medium and antibiotics for AST and the other one with medium only as control. To detect bacterial infection, the integrated object scattering intensity in the control group is quantified over time (e.g., the object scattering intensity is measured every 5 min with the 1 min video and for a total of 90 min). Clinical decision determination is based on integrated object scattering intensity. […] Otherwise, the sample is determined as infection negative. For antibiotic resistance detection, the integrated object intensity change over time in the raw sample (ΔIC=ICt−IC0) and in the antibiotic treated sample (ΔIABX=IABXt−IABX0) are calculated. […]
To establish the method, E. coli and S. saprophyticus cultures (see Materials and Methods) with and without antibiotics were imaged for bacteria growth measurements. […] The integrated object intensity of all cells was quantified with a 1 min duration video in every 5 min interval for a total of 90 min after real-time background removal processing. […] To accurately track E. coli growth, the averaged intensity of a 1 min video was quantified in every 5 min.

[1] = system: S. saprophyticus ATCC 15305; assay: OSID-AST (object scattering intensity detection) with pure S. saprophyticus culture; settings: 2 μg/ml ciprofloxacin
Excerpt: ICt is the integrated object scattering intensity of samples without antibiotics at time t, IC0 is the initial intensity of the same sample. ΔIC=ICt−IC0 and ΔIABX=IABXt−IABX0, represent the integrated object scattering intensity change at time t for antibiotic-untreated (control) and -treated samples, respectively. […] For antibiotic resistance detection, the integrated object intensity change over time in the raw sample (ΔIC=ICt−IC0) and in the antibiotic treated sample (ΔIABX=IABXt−IABX0) are calculated. If the ratio between the two (ΔIABX/ΔIC) is above a resistant threshold (TR), or ΔIABX/ΔIC>TR, which indicates insufficient bacterial inhibition by the antibiotic, the sample is identified as resistant. If the ratio is at or below TR, bacteria growth is inhibited by the antibiotic, and the sample is defined as susceptible to that antibiotic.

Compound | time at which antibiotic susceptibility of E. coli cells can be determined (object intensity detection) (E. coli ATCC 25922) [min] | ΔIABX/ΔIC ([1]; 90 min, resistance threshold 0.5) | object intensity change of antibiotic treated sample ([1]; 90 min detection, control sample ~1.7 times) [times] | antibiotic susceptibility determination with OSID-AST ([1]; threshold 0.5)
O=C1CN(/N=C/c2ccc([N+](=O)[O-])o2)C(=O)N1 [nitrofurantoin] | 40 |  |  | 
O=C(O)c1cn(C2CC2)c2cc(N3CCNCC3)c(F)cc2c1=O [ciprofloxacin] | 60 | ~0.14 | ~1.1 | susceptible

Reference: patent US12049662B2, “Rapid antimicrobial susceptibility testing by video-based object scattering intensity detection” (ARIZONA BOARD OF REGENTS ON BEHALF OF ARIZONA STATE …, priority 2021, dated 2024)
